The values that follow are results of earlier work, collected in patent US6797722B2 (Sigma-Tau Industrie Farmaceutiche Riunite S.p.A., priority 2002, dated 2004).

SMILES strings stand for the structures.

For this data set the following is noted: oral route.

As to `CCc1ccccc1-c1n[nH]c(-c2cccc(OC)c2)n1` [ST1959, 3-(2-ethylphenyl)-5-(3-methoxyphenyl)-1H-1,2,4-triazole], the hepatic first-pass effect entry is “rapid and extensive hepatic first-pass effect leading to the formation of inactive metabolites”.
